Data published in ChEMBL document CHEMBL4043207, “Discovery of a novel, CNS penetrant M4 PAM chemotype based on a 6-fluoro-4-(piperidin-1-yl)quinoline-3-carbonitrile core” (Bioorg Med Chem Lett, 2017).

Columns and labels:
[1] = Clearance in rat hepatocytes; assay type: ADME, cell-based, Hepatocyte
[2] = biological target: T1, Muscarinic acetylcholine receptor M4 (Homo sapiens, UniProt P08173); experiment: Positive allosteric modulation of human M4 receptor expressed in CHO cells co-expressing Gqi5 assessed as increase in acetylcholine-induced calcium mobilization; assay type: functional, cell-based
T1 sequence (P08173 whole entry): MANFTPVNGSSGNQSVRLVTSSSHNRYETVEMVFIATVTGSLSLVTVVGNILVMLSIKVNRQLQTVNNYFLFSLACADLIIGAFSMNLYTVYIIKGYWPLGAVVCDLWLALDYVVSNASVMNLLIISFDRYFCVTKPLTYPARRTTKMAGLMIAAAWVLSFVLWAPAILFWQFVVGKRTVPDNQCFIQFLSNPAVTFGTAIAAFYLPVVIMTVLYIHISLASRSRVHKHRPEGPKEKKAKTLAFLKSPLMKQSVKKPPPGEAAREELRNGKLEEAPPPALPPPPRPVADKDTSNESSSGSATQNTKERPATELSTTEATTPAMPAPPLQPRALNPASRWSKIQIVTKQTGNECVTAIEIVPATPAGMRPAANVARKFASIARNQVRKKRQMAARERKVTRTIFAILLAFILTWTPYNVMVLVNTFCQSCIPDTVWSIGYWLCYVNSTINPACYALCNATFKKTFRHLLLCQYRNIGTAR

[3] = Brain to plasma permeability coefficient, Kp of the compound in Sprague-Dawley rat at 0.1 to 0.2 mg/kg, iv administered as cassette dose after 25 mins; assay type: ADME, organism-based; conditions: brain and plasma
[4] = Ratio of unbound concentration in brain to plasma in Sprague-Dawley rat at 0.1 to 0.2 mg/kg, iv administered as cassette dose after 25 mins; assay type: ADME, organism-based; conditions: brain and plasma, read-out: K(p,uu,brain)
[5] = biological target: T2, Muscarinic acetylcholine receptor M4 (Homo sapiens) (UniProt P08173); experiment: Positive allosteric modulation of human M4 receptor expressed in CHO cells co-expressing Gqi5 assessed as increase in acetylcholine-induced calcium mobilization relative to acetylcholine; assay type: functional, cell-based
T2 sequence (whole entry): T1 sequence (P08173 whole entry)

[6] = Fraction unbound in rat brain; assay type: ADME, tissue-based
MDR1 (P-gp) = experiment: Efflux ratio of apparent permeability in MDCK-MDR1 cells; assay type: ADME, cell-based, Canis lupus familiaris; conditions: dog
[7] = Fraction unbound in rat plasma; assay type: ADME, cell-free
[8] = Clearance in human hepatocytes; assay type: ADME, cell-based, Hepatocyte
[9] = (§1) Fraction unbound in human plasma; assay type: ADME, cell-free
Plasma [10] = experiment: as §1; assay type: ADME, cell-free
[11] = biological target: T3, Muscarinic acetylcholine receptor M4 (Rattus norvegicus, UniProt P08485); experiment: Positive allosteric modulation of rat M4 receptor assessed as increase in acetylcholine-induced response
T3 sequence (P08485 whole entry): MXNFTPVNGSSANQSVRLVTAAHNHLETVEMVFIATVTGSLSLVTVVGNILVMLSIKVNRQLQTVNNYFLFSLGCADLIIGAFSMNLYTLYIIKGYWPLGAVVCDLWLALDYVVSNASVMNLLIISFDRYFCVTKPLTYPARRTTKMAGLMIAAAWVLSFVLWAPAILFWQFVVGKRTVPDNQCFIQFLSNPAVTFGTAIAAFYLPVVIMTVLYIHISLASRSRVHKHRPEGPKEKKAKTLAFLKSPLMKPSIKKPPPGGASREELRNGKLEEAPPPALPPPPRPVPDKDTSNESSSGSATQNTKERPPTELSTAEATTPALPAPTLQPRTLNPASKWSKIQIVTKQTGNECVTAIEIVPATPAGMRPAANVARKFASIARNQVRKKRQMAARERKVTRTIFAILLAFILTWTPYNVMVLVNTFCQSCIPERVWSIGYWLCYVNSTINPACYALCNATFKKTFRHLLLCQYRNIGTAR

[12] = biological target: T4, Muscarinic acetylcholine receptor M4 (Rattus norvegicus) (UniProt P08485); experiment: Positive allosteric modulation of rat M4 receptor assessed as increase in acetylcholine-induced response relative to acetylcholine
T4 sequence (whole entry): T3 sequence (P08485 whole entry)

[13] = Ratio of unbound concentration in brain to plasma in rat; assay type: ADME
[14] = Brain to plasma permeability coefficient, Kp of the compound in rat; assay type: ADME
[15] = Half life in rat plasma at 0.2 mg/kg administered as iv cassette dose; assay type: ADME, organism-based
[16] = Apparent permeability in MDCK-MDR1 cells; assay type: ADME, cell-based, Canis lupus familiaris; conditions: dog
[17] = Clearance in dog plasma at 0.2 mg/kg administered as iv cassette dose; assay type: ADME, organism-based, Canis lupus familiaris
Plasma [18] = experiment: Fraction unbound in dog plasma at 0.2 mg/kg administered as iv casette dose; assay type: ADME, organism-based, Canis lupus familiaris; conditions: in vivo
[19] = Half life in dog plasma at 0.2 mg/kg administered as iv cassette dose; assay type: ADME, organism-based, Canis lupus familiaris
[20] = Clearance in rat plasma at 0.2 mg/kg administered as iv cassette dose; assay type: ADME, organism-based
[21] = Volume of distribution at steady state in dog plasma at 0.2 mg/kg administered as iv cassette dose; assay type: ADME, organism-based, Canis lupus familiaris; conditions: read-out: Vdss
[22] = Volume of distribution at steady state in rat plasma at 0.2 mg/kg administered as iv cassette dose; assay type: ADME, organism-based; conditions: read-out: Vdss

SMILES | EC50 ([2]; read-out: EC50) [nM] | EC50 ([2]; read-out: pEC50 (converted)) [nM] | Emax [5] [%] | also measured
N#Cc1cnc2ccc(F)cc2c1N1CCC(C(=O)Nc2ccc(S(N)(=O)=O)cc2)CC1 | 248 | 229 | 63 | CLhep predicted [1]: 34 mL/min/kg; Kp at 25 min [3]: 0.16; Kp uu at 25 min [4]: 0.1; fraction unbound [6]: 0.01; efflux ratio (MDR1 (P-gp)): 83; fraction unbound [7]: 0.016; CLhep predicted [8]: 13 mL/min/kg; fraction unbound [9]: 0.064
Cc1ccc(OC2CCN(c3c(C#N)cnc4c(C)cc(F)cc34)CC2)cn1 | 2070 | – | 82 | –
Cc1ccc(OC2CCN(c3c(C#N)cnc4ccc(F)cc34)CC2)c(C)n1 | > 10000 | > 31600 | – | –
Cc1ccc(OC2CCN(c3ncnc4ccc(F)cc34)CC2)cn1 | – | – | – | CLhep predicted [1]: 67 mL/min/kg; Kp at 25 min [3]: 1.16; Kp uu at 25 min [4]: 0.74; fraction unbound [6]: 0.007; fraction unbound [7]: 0.011; CLhep predicted [8]: 20 mL/min/kg; Fu (Plasma [10]): 0.013
N#Cc1cnc2ccc(F)cc2c1N1CCC(C(=O)Nc2ccc(F)c(F)c2)CC1 | 565 | – | 52 | –
N#Cc1cnc2ccc(F)cc2c1N1CCC(C(=O)N2CCSCC2)CC1 | 1410 | – | 88 | –
Cc1cc(C)c(OC2CCN(c3c(C#N)cnc4ccc(F)cc34)CC2)cn1 | > 10000 | > 31600 | – | –
N#Cc1cnc2ccc(F)cc2c1N1CCC(Oc2ccc(Cl)nc2)CC1 | 577 | 562 | 80 | –
N#Cc1ccc(OC2CCN(c3c(C#N)cnc4ccc(F)cc34)CC2)cn1 | > 10000 | – | 49 | –
Cc1ccc(OC2CCN(c3ccnc4ccc(F)cc34)CC2)cn1 | 2210 | 2140 | 62 | –
COc1ccc(CNC(=O)C2CCN(c3c(C#N)cnc4ccc(F)cc34)CC2)cc1 | 664 | 617 | 60 | –
COc1ccc2c(c1)CCN(C(=O)C1CCN(c3c(C#N)cnc4ccc(F)cc34)CC1)C2 | 648 | – | 76 | CLhep predicted [1]: 64 mL/min/kg; Kp at 25 min [3]: 1.26; Kp uu at 25 min [4]: 0.68; fraction unbound [6]: 0.007; fraction unbound [7]: 0.013; CLhep predicted [8]: 20 mL/min/kg; fraction unbound [9]: 0.011
Cc1ccc(OC2CCN(c3c(C#N)cnc4cc(F)c(F)cc34)CC2)cn1 | 571 | 562 | 92 | –
Cc1ccc(OC2CCN(c3c(C#N)cnc4ccc(Cl)cc34)CC2)cn1 | 905 | – | 72 | –
COc1ccccc1CNC(=O)C1CCN(c2c(C#N)cnc3ccc(F)cc23)CC1 | 651 | 589 | 48 | –
N#Cc1cnc2ccc(F)cc2c1N1CCC(C(=O)NCc2ccccc2)CC1 | – | 1230 | 68 to 78 | CLhep predicted [1]: 61 mL/min/kg; EC50 [11]: 2560 nM; Emax [12]: 49%; fraction unbound [7]: 0.028; CLhep predicted [8]: 17 mL/min/kg; fraction unbound [9]: 0.031

SMILES | EC50 ([2]; read-out: EC50) [nM] | EC50 ([2]; read-out: pEC50 (converted)) [nM] | Emax [5] [%] | also measured
N#Cc1cnc2ccc(F)cc2c1N1CCC(C(=O)N2CCOCC2)CC1 | 6440 | – | 78 | –
COc1ccc(CNC(=O)C2CCN(c3c(C#N)cnc4ccc(F)cc34)CC2)cc1F | 1090 | 1050 | 65 | CLhep predicted [1]: 61 mL/min/kg; K(p,uu,brain) [13]: 0.26; Kp [14]: 0.29; CLhep predicted [8]: 19 mL/min/kg
N#Cc1cnc2ccc(F)cc2c1N1CCC(C(=O)Nc2ccncn2)CC1 | 940 | – | 59 | –
N#Cc1cnc2ccc(F)cc2c1N1CCC(Oc2ccc(F)nc2)CC1 | 512 | 490 | 83 | –
N#Cc1cnc2ccc(F)cc2c1N1CCC(Oc2cccnc2)CC1 | 1300 | – | 80 | –
Cc1ccc(OC2CCN(c3c(C#N)cnc4c(F)cc(F)cc34)CC2)cn1 | 223 | 209 | 93 | –
N#Cc1cnc2ccc(F)cc2c1N1CCC(C(=O)Nc2ccncc2)CC1 | 147 | – | 73 | –
Cn1nccc1NC(=O)C1CCN(c2c(C#N)cnc3ccc(F)cc23)CC1 | 1760 | 1660 | 81 | –
Cc1ccc(OC2CCN(c3c(C#N)cnc4ccc(F)cc34)CC2)cn1 | 197 | – | 79 | CLhep predicted [1]: 52 mL/min/kg; Kp at 25 min [3]: 5.25 to 5.3; Kp uu at 25 min [4]: 2.37 to 2.4; half-life [15]: 102 min; Papp [16]: 28 ×10⁻⁶ cm/s; clearance [17]: 41 mL/min/kg; Fu (Plasma [18]): 0.045; half-life [19]: 96 min; clearance [20]: 36 mL/min/kg; fraction unbound [6]: 0.014; efflux ratio (MDR1 (P-gp)): 1.1; EC50 [11]: 437 nM; Vd [21]: 4 L/kg; Emax [12]: 74%; Vd [22]: 3.2 L/kg; fraction unbound [7]: 0.031; CLhep predicted [8]: 15 mL/min/kg; fraction unbound [9]: 0.024
Cc1ccc2ncc(C#N)c(N3CCC(Oc4ccc(C)nc4)CC3)c2c1 | 3020 | 2950 | 67 | –
N#Cc1cnc2ccc(F)cc2c1N1CCC(Oc2ccccc2)CC1 | 3260 | – | 81 | –
N#Cc1cnc2ccc(F)cc2c1N1CCC(C(=O)N2CCc3ccccc3C2)CC1 | 652 | – | 81 | –
N#Cc1cnc2ccc(F)cc2c1N1CCC(C(=O)Nc2cccnc2)CC1 | 619 | – | 68 | –
N#Cc1cnc2ccc(F)cc2c1N1CCC(C(=O)Nc2ccccn2)CC1 | 912 | 871 | 44 | –
Cc1ccc(OC2CCN(c3c(C#N)cnc4ccc(F)cc34)CC2)c(F)n1 | 5640 | 5370 | 53 | –
